Measured values as given in ChEMBL document CHEMBL1909046, “DrugMatrix in vitro pharmacology data”.

Tests used:
Adenosine receptor A1 = molecular target: T1, Adenosine receptor A1 (Homo sapiens, UniProt P30542); assay type: cell membranes, CHO, Membrane; details: cho;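 note: radioligand binding assay at the adenosine A1 receptor, with DPCPX serving as the labelled ligand; in other assays of this panel Not Active means under 50% inhibition at 10 µM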
T1 sequence (P30542 whole entry): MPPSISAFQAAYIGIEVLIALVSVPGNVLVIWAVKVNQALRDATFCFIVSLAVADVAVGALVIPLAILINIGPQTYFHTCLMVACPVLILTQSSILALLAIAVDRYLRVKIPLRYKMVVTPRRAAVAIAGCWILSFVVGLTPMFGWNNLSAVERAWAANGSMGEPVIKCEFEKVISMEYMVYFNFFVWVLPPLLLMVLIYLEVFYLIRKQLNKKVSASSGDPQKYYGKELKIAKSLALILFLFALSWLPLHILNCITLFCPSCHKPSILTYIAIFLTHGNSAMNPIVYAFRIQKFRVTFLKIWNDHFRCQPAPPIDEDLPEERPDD

Adenosine receptor A3 = molecular target: T2, Adenosine receptor A3 (Homo sapiens, UniProt P0DMS8); assay type: cell membranes, CHO-K1, Membrane;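 note: radioligand binding assay with AB-MECA serving as the labeled ligand; in other assays of this panel Not Active means under 50% inhibition at 10 µM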
T2 sequence (P0DMS8 whole entry): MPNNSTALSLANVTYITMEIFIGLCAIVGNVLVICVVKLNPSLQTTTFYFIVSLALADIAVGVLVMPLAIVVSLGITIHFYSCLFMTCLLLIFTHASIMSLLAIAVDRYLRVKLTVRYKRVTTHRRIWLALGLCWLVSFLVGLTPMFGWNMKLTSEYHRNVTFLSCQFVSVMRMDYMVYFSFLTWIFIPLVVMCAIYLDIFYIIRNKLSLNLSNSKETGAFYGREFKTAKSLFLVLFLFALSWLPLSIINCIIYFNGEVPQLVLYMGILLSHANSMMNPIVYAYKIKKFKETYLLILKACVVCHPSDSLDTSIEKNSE

D(4) dopamine receptor = molecular target: T3, D(4) dopamine receptor (Homo sapiens, UniProt P21917); assay: DRUGMATRIX: Dopamine D4.2 radioligand binding (ligand: [3H] Spiperone); assay type: cell membranes, CHO-K1, Membrane; details: Not Active = under 50% inhibition at 10 µM
T3 sequence (P21917 whole entry): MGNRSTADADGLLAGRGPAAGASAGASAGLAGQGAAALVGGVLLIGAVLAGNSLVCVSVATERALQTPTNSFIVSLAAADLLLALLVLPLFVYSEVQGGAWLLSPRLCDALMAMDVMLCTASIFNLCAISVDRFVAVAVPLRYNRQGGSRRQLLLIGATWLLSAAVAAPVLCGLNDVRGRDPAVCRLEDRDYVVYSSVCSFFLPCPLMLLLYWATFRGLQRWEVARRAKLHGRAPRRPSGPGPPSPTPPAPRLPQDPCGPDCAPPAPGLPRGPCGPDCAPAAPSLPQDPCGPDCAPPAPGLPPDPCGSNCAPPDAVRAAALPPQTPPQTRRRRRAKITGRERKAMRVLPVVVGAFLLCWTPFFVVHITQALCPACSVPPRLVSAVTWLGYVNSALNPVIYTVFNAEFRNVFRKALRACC

[1] = DRUGMATRIX: Glutamate, AMPA radioligand binding (ligand: [3H] AMPA); assay type: cell membranes, Rattus norvegicus, Wistar, Cerebral cortex, Membrane; details: Not Active = under 50% inhibition at 10 µM
[2] = DRUGMATRIX: beta-Lactamase enzyme inhibition (substrate: Nitrocefin); parameters: species or system Bacillus cereus; details: Not Active = under 50% inhibition at 10 µM
[3] = molecular target: 5-hydroxytryptamine receptor 6 (Homo sapiens, UniProt P50406); assay type: cell membranes, HeLa, Membrane; note: in other assays of this panel Not Active means under 50% inhibition at 10 µM
Chain of 5-hydroxytryptamine receptor 6 (P50406 whole entry): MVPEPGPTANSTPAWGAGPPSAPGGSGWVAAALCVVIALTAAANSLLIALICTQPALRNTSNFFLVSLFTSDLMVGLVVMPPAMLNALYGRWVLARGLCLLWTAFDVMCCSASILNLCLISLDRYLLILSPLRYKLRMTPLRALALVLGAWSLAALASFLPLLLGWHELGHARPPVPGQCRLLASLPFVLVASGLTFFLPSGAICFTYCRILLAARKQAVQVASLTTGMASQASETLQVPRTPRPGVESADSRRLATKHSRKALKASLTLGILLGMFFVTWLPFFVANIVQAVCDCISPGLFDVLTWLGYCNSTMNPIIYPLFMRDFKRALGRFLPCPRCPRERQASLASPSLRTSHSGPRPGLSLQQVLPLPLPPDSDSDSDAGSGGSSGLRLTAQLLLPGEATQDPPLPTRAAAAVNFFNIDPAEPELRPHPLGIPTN

[4] = molecular target: T4, Angiotensin-converting enzyme (Oryctolagus cuniculus, UniProt P12822); assay: biochemical; assay type: tissue-based, Lung;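 note: enzymatic inhibition of angiotensin-converting enzyme measured with FAPGG as the substrate; in other assays of this panel Not Active means under 50% inhibition at 10 µM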
T4 sequence (P12822 whole entry): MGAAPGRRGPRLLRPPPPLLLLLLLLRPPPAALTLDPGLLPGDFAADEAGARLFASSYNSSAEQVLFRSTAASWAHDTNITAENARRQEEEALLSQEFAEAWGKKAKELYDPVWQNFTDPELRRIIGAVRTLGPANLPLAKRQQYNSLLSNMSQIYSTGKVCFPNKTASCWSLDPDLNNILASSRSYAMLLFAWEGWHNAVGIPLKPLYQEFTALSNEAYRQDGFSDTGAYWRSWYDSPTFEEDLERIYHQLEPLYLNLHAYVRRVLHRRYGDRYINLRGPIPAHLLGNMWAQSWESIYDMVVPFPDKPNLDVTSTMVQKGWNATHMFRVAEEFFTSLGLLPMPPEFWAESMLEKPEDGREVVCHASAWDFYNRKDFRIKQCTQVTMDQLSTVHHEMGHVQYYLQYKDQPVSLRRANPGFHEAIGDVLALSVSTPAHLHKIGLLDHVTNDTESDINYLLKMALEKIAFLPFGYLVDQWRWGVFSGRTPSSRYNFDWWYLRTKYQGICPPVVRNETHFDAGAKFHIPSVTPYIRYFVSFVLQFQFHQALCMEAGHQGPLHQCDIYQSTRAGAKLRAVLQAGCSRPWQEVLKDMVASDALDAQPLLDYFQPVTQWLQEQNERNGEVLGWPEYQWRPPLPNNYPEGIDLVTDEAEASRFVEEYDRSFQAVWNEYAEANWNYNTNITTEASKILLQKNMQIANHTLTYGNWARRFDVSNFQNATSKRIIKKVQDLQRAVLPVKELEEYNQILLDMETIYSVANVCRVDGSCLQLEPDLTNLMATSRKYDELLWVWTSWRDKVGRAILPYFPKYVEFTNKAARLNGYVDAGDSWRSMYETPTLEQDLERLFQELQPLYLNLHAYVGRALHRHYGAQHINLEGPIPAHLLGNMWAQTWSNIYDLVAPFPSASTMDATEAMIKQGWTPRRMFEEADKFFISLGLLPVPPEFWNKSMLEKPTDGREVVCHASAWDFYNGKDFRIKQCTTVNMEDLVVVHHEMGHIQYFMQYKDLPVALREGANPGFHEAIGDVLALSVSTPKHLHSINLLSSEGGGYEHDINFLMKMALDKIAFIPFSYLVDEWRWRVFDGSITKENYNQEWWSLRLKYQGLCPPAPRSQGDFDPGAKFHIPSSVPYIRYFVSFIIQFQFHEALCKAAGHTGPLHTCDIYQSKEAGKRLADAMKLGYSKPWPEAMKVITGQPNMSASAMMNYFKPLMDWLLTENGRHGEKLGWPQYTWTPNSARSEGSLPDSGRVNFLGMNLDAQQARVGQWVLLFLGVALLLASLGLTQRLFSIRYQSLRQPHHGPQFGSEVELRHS

Structure (SMILES) | IC50 (Adenosine receptor A1) | IC50 (Adenosine receptor A3; read-out: IC50) | Ki (Adenosine receptor A3; read-out: Ki) | IC50 (D(4) dopamine receptor; read-out: IC50) | Ki (D(4) dopamine receptor; read-out: Ki) | IC50 [1] | Ki [1] | IC50 [2] | Ki [2] | IC50 ([3]; read-out: IC50) | Ki ([3]; read-out: Ki) | IC50 [4] | IC50 (Adenosine receptor A3; cho-k1) | IC50 (D(4) dopamine receptor; cho-k1) | IC50 ([3]; hela)
CCN(CC)C(=S)SSC(=S)N(CC)CC | Not Active | 0.356 µM | 0.201 µM | 3.15 µM | 1.1 µM | Not Active | Not Active | Not Active | Not Active | 16 µM | 7.43 µM | Not Active |  |  | 
CC(C)(C)NC[C@H](O)COc1cccc2c1CCCC2=O [LEVOBUNOLOL] | Not Active |  |  |  |  | Not Active | Not Active | Not Active | Not Active |  |  | Not Active | Not Active | Not Active | Not Active
Nc1nc(N)c2nc(-c3ccccc3)c(N)nc2n1 | Not Active |  |  |  |  | Not Active | Not Active | Not Active | Not Active |  |  | Not Active | Not Active | Not Active | Not Active
Cc1ccc(S(=O)(=O)NC(=O)NN2CCCCCC2)cc1 [TOLAZAMIDE] | Not Active |  |  |  |  | Not Active | Not Active | Not Active | Not Active |  |  | Not Active | Not Active | Not Active | Not Active
Cc1ccc(Cl)c(Nc2ccccc2C(=O)O)c1Cl [MECLOFENAMIC ACID] | Not Active |  |  |  |  | Not Active | Not Active | Not Active | Not Active |  |  | Not Active | Not Active | Not Active | Not Active
CO[C@@H]1[C@@H](OC)[C@H](C)[C@@](O)(CC(=O)O)O[C@H]1[C@H](C)[C@H]1O[C@@]2(CC[C@@](C)([C@H]3CC[C@@](C)([C@@H]4O[C@@H]([C@H]5O[C@](C)(O)[C@H](C)C[C@@H]5C)C[C@@H]4O[C@@H]4C[C@H](OC)[C@@H](OC)[C@H](C)O4)O3)O2)C[C@H](O)[C@H]1C.N [MADURAMICIN] | Not Active |  |  |  |  | Not Active | Not Active | Not Active | Not Active |  |  | Not Active | Not Active | Not Active | Not Active
CCC(C)(C)C(=O)O[C@H]1C[C@@H](C)C=C2C=C[C@H](C)[C@H](CC[C@@H]3C[C@@H](O)CC(=O)O3)[C@H]21 [SIMVASTATIN] | Not Active |  |  |  |  | Not Active | Not Active | Not Active | Not Active |  |  | Not Active | Not Active | Not Active | Not Active
C#C[C@]1(O)CC[C@H]2[C@@H]3[C@H](C)CC4=C(CCC(=O)C4)[C@H]3CC[C@@]21C [TIBOLONE] | Not Active |  |  |  |  | Not Active | Not Active | Not Active | Not Active |  |  | Not Active | Not Active | Not Active | Not Active
